Assay results: publication PMC4648050, “Discovery of Inhibitors of Trypanosoma brucei by Phenotypic Screening of a Focused Protein Kinase Library” (Chemmedchem, 2015)
In brackets after ≈: the same amount, converted by molar mass. Like-named read-outs stand apart in the source and are kept apart here.

How the values were obtained:
T. b. brucei = assay: Trypanosome proliferation assay; assay type: cell-based, Trypanosoma brucei brucei; conditions: for EC50: geometric mean of two or more determinations, standard cell viability (resazurin) assay, read-out: EC50 T. b. brucei
Method: (§1) Trypanosome and MRC5 proliferation assay: Measurement of inhibition of the proliferation of MRC5 cells (human lung fibroblasts) and T. brucei bloodstream-stage cells was performed using a modification of a cell viability assay previously described.[35, 36] Compounds ([…] to 0.5 nM) were incubated with 2×10^3 cells per well in 0.2 mL of the appropriate culture medium (MEM with 10 % foetal bovine serum for MRC5 cells) in clear 96-well plates. Plates were incubated at 37 °C in the presence of 5 % CO2 for 69 h. Resazurin was then added to a final concentration of 50 μM, and plates were incubated as above for a further 4 h before being read on a BioTek Flx800 fluorescence plate reader.

[1] = test system: T. brucei bloodstream-stage cells; assay: Static–cidal (SC) assay; assay type: cell-based, Trypanosoma brucei brucei; conditions: for EC50 / MCC: Trypanosoma brucei; for EC50: 48 h; for MCC: static–cidal assay in triplicate, read-out: MCC (minimal cidal concentration); for mode of antiparasitic effect (in words): text and figure legend, at concentrations tested; for plateau of dose–response curve (inhibition): static–cidal dose–response curve
Method: Determination of cidality against T. brucei bloodstream-stage cells was performed using a static–cidal (SC) assay as previously reported.[26] Briefly, bloodstream-form trypanosomes were seeded into 384-well plates at 4×10^5 mL^−1 (50 μL per well), followed by immediate addition of resazurin (50 μM final) to one of the plates, and all plates were incubated at 37 °C, 5 % CO2. After 4 h the t0 plate was read using a PerkinElmer Victor 3 plate reader (λex=528 nm, λem=590 nm). The second plate was processed in the same manner 20 h later, and at 44 h the last plate was processed. The minimum cidal concentration (MCC) is defined as the lowest concentration of drug that results in a decrease of resorufin signal over time. For dose–response curves from this assay either a monophasic or a biphasic equation was used, depending on which one provided the best fit. For monophasic fits, the following four-parametric equation [Eq. (1)] was used:
in which A=percent inhibition at bottom, B=percent inhibition at top, C=EC50, D=slope, x=inhibitor concentration, and y=percent inhibition. Equation (2) was used for biphasic fits:
for which A=percent inhibition at mid-plateau, B=slope, C=log[SC EC50(1)], D=log[SC EC50(2)]. Thus SC EC50(1) is the EC50 for the first phase of the curve, and SC EC50(2) is that for the second phase. Inhibition at the bottom of the curve is fixed at 0 % and at the top, 100 %.

[2] = test system: MRC5 cells (human lung fibroblasts); assay: MRC5 proliferation assay; assay type: cell-based; conditions: geometric mean of two or more determinations
Method: as §1

[3] = Intrinsic clearance in mouse liver microsomes; assay type: in vitro ADME; conditions: mouse hepatic microsomes, 0.5 μM compound
Method: Intrinsic clearance experiments: Test compound (0.5 μM) was incubated with female CD1 mouse liver microsomes (Xenotech LLC; 0.5 mg mL^−1 50 mM potassium phosphate buffer, pH 7.4), and the reaction started with the addition of excess NADPH (8 mg mL^−1 50 mM potassium phosphate buffer, pH 7.4). Immediately, at t0, then at 3, 6, 9, 15, and 30 min an aliquot (50 μL) of the incubation mixture was removed and mixed with MeCN (100 μL) to stop the reaction. Internal standard was added to all samples, the samples were centrifuged to sediment precipitated protein, and the plates were then sealed prior to UPLC–MS/MS analysis using a Quattro Premier XE instrument (Waters Corp., USA). XLfit (IDBS, UK) was used to calculate the exponential decay and consequently the rate constant (k) from the ratio of peak area of test compound to internal standard at each time point. The rate of intrinsic clearance [CLint, mL min^−1 (g liver)^−1] of each test compound was then calculated with Equation (3): […]
in which V [mL (mg protein)^−1] is the incubation volume per mg protein added, and microsomal protein yield is taken as 52.5 mg protein per gram of liver. Verapamil (0.5 μM) was used as a positive control to confirm acceptable assay performance.

[4] = Plasma protein binding (equilibrium dialysis); assay type: in vitro ADME; conditions: mouse plasma; for fraction unbound at 5 h, 10 μg g^−1: female, CD1, read-out: PPB; for fraction unbound at 5 h, 10 μg g^−1 / PPB: equilibrium dialysis
Method: Plasma protein binding experiments: In brief, a 96-well equilibrium dialysis apparatus was used to determine the free fraction in plasma for each compound (HT Dialysis LLC, Gales Ferry, CT, USA). Membranes (12-14 kDa cutoff) were conditioned in deionised H2O for 60 min, followed by conditioning in 80:20 deionised H2O/EtOH for 20 min, and then rinsed in isotonic buffer before use. Female CD1 mouse plasma was removed from the freezer and allowed to thaw on the day of experiment. Thawed plasma was then centrifuged (Allegra […], Beckman Coulter, USA), spiked with test compound (10 μg g^-1), and 150 μL aliquots (n=6 replicate determinations) loaded into the 96-well equilibrium dialysis plate. Dialysis against isotonic buffer (150 μL) was carried out for 5 h in a temperature-controlled incubator at ∼37 °C (Barworld Scientific Ltd., UK) using an orbital microplate shaker at 125 rpm (Barworld Scientific). At the end of the incubation period, aliquots of plasma or buffer were transferred to micronic tubes (Micronic B.V., the Netherlands), and the composition in each tube was balanced with control fluid such that the volume of buffer to plasma is the same. Sample extraction was performed by the addition of 400 μL MeCN containing an appropriate internal standard. Samples were allowed to mix for 1 min and then centrifuged at 3000 rpm in 96-well blocks for 15 min (Allegra […], Beckman Coulter, USA). All samples were analysed by UPLC-MS/MS on a Quattro Premier XE Mass Spectrometer (Waters Corp.). The unbound fraction was determined as the ratio of the peak area in buffer to that in plasma.

[5] = Kinetic aqueous solubility (laser nephelometry); assay type: physicochemical; conditions: Milli-Q water with 2.5% DMSO, kinetic from dmso stock, range 250–12 μM, read-out: Aq. Sol. (aqueous kinetic solubility)
Method: Solubility experiments: The kinetic aqueous solubility of the test compounds was measured using laser nephelometry. Compounds were subject to serial dilution from 10 mM to 0.5 mM in DMSO. An aliquot was then mixed with Milli-Q H2O to obtain an aqueous dilution plate with a final concentration range of 250–12 μM, with a final DMSO concentration of 2.5 %. Triplicate aliquots were transferred to a flat-bottomed polystyrene plate which was immediately read on the NEPHELOstar (BMG Lab Technologies). The amount of laser scatter caused by insoluble particulates (relative nephelometry units, RNU) was plotted against compound concentration using a segmental regression fit, with the point of inflection being quoted as the compounds′ aqueous solubility (in μM).

[6] = In vivo pharmacokinetics in mice; set-up: species or system female NMRI mice; conditions: mouse, whole blood, ip, blood; for Tmax: female, NMRI; for AUC(0-t): read-out: AUC(0–8) (converted)
Method: In vivo pharmacokinetics in mice: Compounds 1 and 28 were dosed orally by gavage as a solution at 5 mg free base per kg or 20 mg free base per kg, respectively (dose volume: 5 or 10 mL kg^−1, dose vehicle: 5 % DMSO, 40 % PEG400, 55 % distilled H2O) to female NMRI mice (n=3). Compounds 28, 38, and 56 were dosed as a bolus solution intraperitoneally at 10 (56) or 20 (28 and 38) mg free base per kg (dose volume: 10 mL kg^−1, dose vehicle: 5 % DMSO, 40 % PEG400, 55 % sterile H2O) to female NMRI mice (n=3). Female NMRI mice were chosen, as these represent the sex and strain used for the stage-1 and stage-2 HAT efficacy models. Blood samples were taken from each mouse at 5 (i.p. only), 15 and 30 min, 1, 2, 4, 6 and 8 h post-dose and mixed with two volumes of distilled H2O. After suitable sample preparation, the concentration of each compound in blood was determined by UPLC–MS/MS using a Quattro Premier XE (Waters, USA). Pharmacokinetic parameters were derived from the mean blood concentration time curve using PKsolutions software ver. 2.0 (Summit Research Services, USA).

[7] = static cidal EC50, first site/phase, read-out: SC EC50(1)
[8] = static cidal EC50, second site/phase, read-out: SC EC50(2)

SMILES | EC50 (T. b. brucei; Trypanosoma brucei) [nM] | EC50 (T. b. brucei) [nM] | EC50 [1, 7] [nM] | MCC [1] [µM] | mode of antiparasitic effect (in words) [1] | EC50 [2] [nM] | CLint [3] [mL/min/g] | fraction unbound at 5 h, 10 μg g^−1 [4] | solubility kinetic [5] [µM] | EC50 [1, 8] [nM] | further results
O=c1[nH]c2ncc(-c3cccnc3)nc2n1C1CCCCC1 [Compound 30] | 100 | 120 | 230 | > 50 | growth-slowing or static behaviour | > 50000 | 2.8 | 0.023 | – | – | –
O=c1[nH]c2ncc(-c3cccnc3)cc2n1C1CCCCC1 [Compound 55] | 230 | – | 330 | > 50 | growth-slowing or static behaviour | > 50000 | 2.7 | 0.11 | 180 (≈ 53 µg/mL) | – | fold loss of activity (T. b. brucei EC50) (T. b. brucei; relative to the comparator compound): approximately 2 fold
O=c1[nH]c2ncc(N3CCCCC3)nc2n1C1CCCCC1 [Compound 31, 1-Cyclohexyl-6-(piperidin-1-yl)-1H-imidazo[4,5-b]pyrazin-2(3H)-one] | 80 | 77 | – | – | – | > 50000 | 15 | – | – | – | PPB [4]: 0 % free
O=c1[nH]c2ncc(N3CCCCC3)cc2n1C1CCCCC1 [Compound 56] | 93 | 90 | 70 | > 50 | growth-slowing or static behaviour | > 50000 | 3.6 | 0.11 | > 250 | > 50000 | Tmax ([6]; 10 mg/kg, 10 mg kg^−1, female NMRI mice): 0.25 h; Cmax ([6]; 10 mg kg^−1, female NMRI mice): 580 ng/mL; half-life ([6]; 10 mg kg^−1, female NMRI mice): 0.7 h; AUC(0-t) ([6]; 10 mg kg^−1, female NMRI mice): 883 ng·h/mL
O=c1[nH]c2ncc(-c3ccccc3)nc2n1C1CCOCC1 [Compound 38] | 100 | – | – | – | – | > 50000 | 1.6 | – | 55 (≈ 16.3 µg/mL) | – | Tmax ([6]; 20 mg/kg, 20 mg kg^−1, female NMRI mice): 2 h; Cmax ([6]; 20 mg kg^−1, female NMRI mice): 83 ng/mL; half-life ([6]; 20 mg kg^−1, female NMRI mice): 2.2 h; AUC(0-t) ([6]; 20 mg kg^−1, female NMRI mice): 367 ng·h/mL; protein binding (unbound) [4]: 15 % unbound
c1cncc(-c2cnc3[nH]nc(C4CCCCC4)c3c2)c1 [Compound 63] | 260 | – | 280 | 17 | cidal behaviour | > 50000 | 6.6 | 0.052 | 250 (≈ 69.6 µg/mL) | 6100 | plateau of dose–response curve (inhibition) [1]: 100 % inhibition
O=c1[nH]c2ncc(-c3ccccc3)nc2n1C1CCCCC1 [Compound 19] | 40 | 44 | – | – | – | > 50000 | 3.6 | 0.008 | 110 (≈ 32.4 µg/mL) | – | PPB [4]: 0.8 % free
O=c1[nH]c2ncc(-c3ccccc3)cc2n1C1CCCCC1 [Compound 51] | 54 | 50 | 20 | > 50 | growth-slowing or static behaviour | > 50000 | 5.8 | 0.029 | 36 (≈ 10.6 µg/mL) | 41000 | Mode ([1]; static/cidal classification from growth curves): S^[d]
c1ccc(-c2cnc3[nH]nc(C4CCCCC4)c3c2)cc1 [Compound 60] | 59 | 60 | 80 | 17 | cidal behaviour | > 50000 | 15 | 0.014 | 20 (≈ 5.55 µg/mL) | 7900 | plateau of dose–response curve (inhibition) [1]: 100 % inhibition
